US20260274895A1, “DE NOVO DESIGNED MEMBRANE-TRAVERSING AND ORALLY BIOAVAILABLE MACROCYCLES” (UNIVERSITY OF WASHINGTON, priority 2022, published 2026)
Where a SMILES comes first, the peptide text is derived from it. [ ]: non-standard residue; d: D form. NMeF = CN[C@@H](Cc1ccccc1)C(=O)O; NMeI = CC[C@H](C)[C@H](NC)C(=O)O; NMeL = CN[C@@H](CC(C)C)C(=O)O; dNMeL = CN[C@H](CC(C)C)C(=O)O; NMeV = CN[C@H](C(=O)O)C(C)C; NMeA = CN[C@@H](C)C(=O)O; dNMeA = CN[C@H](C)C(=O)O

Settings: PAMPA

Structure (SMILES)	PAMPA_Papp_Avg (apparent permeability) [×10⁻⁶ cm/s]
CC[C@H](C)[C@@H]1NC(=O)[C@H]2CCCN2C(=O)[C@@H]2CCCN2C(=O)[C@H](C(C)C)NC(=O)[C@@H](C(C)C)NC(=O)[C@H](Cc2ccccc2)N(C)C(=O)[C@H]2CCCN2C(=O)[C@@H](CC(C)C)N(C)C(=O)[C@@H](CC(C)C)NC1=O [Design D9.42, pIl*lp*FvVP] (cyclo(I[dL][dNMeL][dP][NMeF][dV]VP[dP]))	1.12
CC(C)C[C@@H]1NC(=O)[C@@H](CC(C)C)NC(=O)[C@@H]2CCCN2C(=O)[C@@H](CC(C)C)NC(=O)[C@H](C)N(C)C(=O)[C@H](C)NC(=O)[C@H](CC(C)C)N(C)C(=O)[C@@H]2CCCN2C(=O)[C@H](CC(C)C)NC(=O)[C@H](CC(C)C)N(C)C1=O [Design D10.16, lL*LLP*LA*AlP] (cyclo(A[NMeA][dL]P[dL]L[NMeL]LP[NMeL]))	2.27
CC[C@H](C)[C@H]1C(=O)N[C@H](C)C(=O)N[C@@H](CC(C)C)C(=O)N[C@@H](C(C)C)C(=O)N2CCC[C@@H]2C(=O)N(C)[C@@H](CC(C)C)C(=O)N[C@@H](C(C)C)C(=O)N2CCC[C@H]2C(=O)N(C)[C@H](CC(C)C)C(=O)N[C@@H](C(C)C)C(=O)N1C [Design D10.19, aLVp*LVP*lV*I] (cyclo(LV[dP][NMeL]VP[dNMeL]V[NMeI][dA]))	6.36
CC(C)C[C@@H]1NC(=O)[C@@H](Cc2ccccc2)NC(=O)[C@@H](CC(C)C)N(C)C(=O)[C@@H]2CCCN2C(=O)[C@H](C)NC(=O)[C@@H](CC(C)C)N(C)C(=O)[C@@H]2CCCN2C(=O)[C@H](CC(C)C)N(C)C(=O)[C@H](CC(C)C)N(C)C(=O)[C@H](C(C)C)NC1=O [Design D10.20, P*lAP*lfLV*L*L] (cyclo(AP[dNMeL][dF]LV[NMeL][NMeL]P[dNMeL]))	2.59
CC(C)[C@@H]1NC(=O)[C@H]2CCCN2C(=O)[C@@H](C(C)C)NC(=O)[C@@H]2CCCN2C(=O)[C@H](Cc2ccccc2)NC(=O)[C@H](Cc2ccccc2)NC(=O)[C@H]2CCCN2C(=O)[C@@H](C(C)C)NC(=O)[C@@H]2CCCN2C(=O)[C@H](C(C)C)NC1=O [Design D10.27, PvpVVPvpFF] (cyclo(FFP[dV][dP]VVP[dV][dP]))	0.49
CC(C)C[C@@H]1C(=O)N[C@@H](C)C(=O)N[C@H](CC(C)C)C(=O)N(C)[C@@H](C)C(=O)N2CCC[C@@H]2C(=O)N2CCC[C@@H]2C(=O)N2CCC[C@@H]2C(=O)N2CCC[C@H]2C(=O)N[C@H](C(C)C)C(=O)N(C)[C@@H](CC(C)C)C(=O)N1C [Design D10.28, l*ApppPv*L*lA] (cyclo([dV][NMeL][dNMeL]A[dL][NMeA][dP][dP][dP]P))	0.184
CC(C)C[C@@H]1C(=O)N(C)[C@H](C)C(=O)N(C)[C@@H](C(C)C)C(=O)N2CCC[C@@H]2C(=O)N[C@H](C)C(=O)N[C@@H](Cc2ccccc2)C(=O)N2CCC[C@@H]2C(=O)N2CCC[C@H]2C(=O)N[C@H](C(C)C)C(=O)N[C@@H](C(C)C)C(=O)N1C [Design D10.29, FpPvV*l*a*Vpa] (cyclo([dV]V[dNMeL][dNMeA][NMeV][dP][dA]F[dP]P))	0.441
CC[C@@H](C)[C@H]1NC(=O)[C@H](Cc2ccccc2)NC(=O)[C@@H](CC(C)C)N(C)C(=O)[C@@H]2CCCN2C(=O)[C@@H](C(C)C)NC(=O)[C@@H](C)N(C)C(=O)[C@H]2CCCN2C(=O)[C@@H](CC(C)C)NC(=O)[C@H](CC(C)C)NC(=O)[C@@H]2CCCN2C1=O [Design D10.30, P*lFiPLlp*av] (cyclo(F[dI]PL[dL][dP][dNMeA][dV]P[dNMeL]))	4.78
CC[C@H](C)[C@@H]1NC(=O)[C@@H](CC(C)C)NC(=O)[C@@H](C)N(C)C(=O)[C@H](Cc2ccccc2)NC(=O)[C@@H](CC(C)C)NC(=O)[C@@H](C)N(C)C(=O)[C@@H]2CCCN2C(=O)[C@H](C(C)C)NC(=O)[C@H]2CCCN2C(=O)[C@@H]2CCCN2C1=O [Design D10.31, F*alIPpVP*al] (cyclo(F[dNMeA][dL]IP[dP]VP[dNMeA][dL]))	1.9
CC[C@@H](C)[C@H]1NC(=O)[C@@H](Cc2ccccc2)NC(=O)[C@@H](CC(C)C)NC(=O)[C@@H]2CCCN2C(=O)[C@H]2CCCN2C(=O)[C@H](CC(C)C)NC(=O)[C@H](CC(C)C)NC(=O)[C@@H](CC(C)C)N(C)C(=O)[C@H](C)N(C)C(=O)[C@H]2CCCN2C1=O [Design D10.34, fip*A*lLLpPl] (cyclo([dL][dF][dI][dP][NMeA][dNMeL]LL[dP]P))	4.51
CC(C)C[C@@H]1NC(=O)[C@H](C(C)C)NC(=O)[C@@H](CC(C)C)N(C)C(=O)[C@H](C)NC(=O)[C@@H](CC(C)C)N(C)C(=O)[C@@H]2CCCN2C(=O)[C@H]2CCCN2C(=O)[C@H](C)N(C)C(=O)[C@H]2CCCN2C(=O)[C@@H](CC(C)C)NC1=O [Design D10.35, Llp*ApP*LA*lV] (cyclo([dNMeL]A[dNMeL]VL[dL][dP][NMeA][dP]P))	0.279

Next, values leading:

PAMPA_Papp_Avg (apparent permeability) [×10⁻⁶ cm/s]	Structure (SMILES)
0.654	CC[C@@H](C)[C@H]1NC(=O)[C@@H](Cc2ccccc2)NC(=O)[C@H](CC(C)C)NC(=O)[C@@H](C)N(C)C(=O)[C@@H](CC(C)C)NC(=O)[C@H](CC(C)C)NC(=O)[C@H]2CCCN2C(=O)[C@@H]2CCCN2C(=O)[C@@H](C)NC(=O)[C@H]2CCCN2C1=O [Design D10.37, l*aLfipaPpL] (cyclo(L[dF][dI][dP][dA]P[dP]L[dL][dNMeA]))
1.48	CC[C@@H](C)[C@H]1NC(=O)[C@H]2CCCN2C(=O)[C@@H]2CCCN2C(=O)[C@@H](CC(C)C)NC(=O)[C@H](C)NC(=O)[C@@H](CC(C)C)N(C)C(=O)[C@@H](C)N(C)C(=O)[C@@H]2CCCN2C(=O)[C@@H]([C@H](C)CC)NC(=O)[C@@H](CC(C)C)N(C)C1=O [Design D10.39, P*a*lAlPpi*li] (cyclo(A[dL]P[dP][dI][dNMeL][dI]P[dNMeA][dNMeL]))
5.69	CC[C@H](C)[C@@H]1NC(=O)[C@@H](C(C)C)NC(=O)[C@@H](CC(C)C)N(C)C(=O)[C@H]2CCCN2C(=O)[C@@H](CC(C)C)NC(=O)[C@@H](CC(C)C)N(C)C(=O)[C@H](CC(C)C)NC(=O)[C@H]2CCCN2C(=O)[C@H](C)N(C)C(=O)[C@H]2CCCN2C1=O [Design D10.41, p*lvIp*ApL*ll] (cyclo(I[dP][NMeA][dP]L[dNMeL][dL][dP][dNMeL][dV]))
0.71	CC(C)C[C@H]1NC(=O)[C@@H](C(C)C)NC(=O)[C@H](CC(C)C)N(C)C(=O)[C@@H](Cc2ccccc2)NC(=O)[C@H](CC(C)C)N(C)C(=O)[C@H]2CCCN2C(=O)[C@@H]2CCCN2C(=O)[C@H]2CCCN2C(=O)[C@@H](C(C)C)NC(=O)[C@H]2CCCN2C1=O [Design D10.42, vlpvpPp*Lf*L] (cyclo([dP][NMeL][dF][NMeL][dV][dL][dP][dV][dP]P))
0.161	CC(C)C[C@@H]1C(=O)N[C@@H](C)C(=O)N[C@H](CC(C)C)C(=O)N2CCC[C@H]2C(=O)N[C@H](C)C(=O)N2CCC[C@@H]2C(=O)N2CCC[C@H]2C(=O)N[C@H](C(C)C)C(=O)N[C@H](CC(C)C)C(=O)N(C)[C@H](CC(C)C)C(=O)N1C [Design D10.43, apPvl*l*LAlP] (cyclo([dV][dL][dNMeL][dNMeL]A[dL]P[dA][dP]P))
